According to patent publication US6063804A, “Pyrrole compounds” (Adir et Compagnie, priority 1997, dated 2000):
pIC50: −log10 of the molar value. Read-outs that look alike come from different tables or passages of the source.

Key:
cyclooxygenase 2 (COX 2) = molecular target: T1, cyclooxygenase 2 (COX 2) (Mus musculus, UniProt Q05769); assay: Inhibitory activity in relation to COX 2 in peritoneal macrophages exposed to LPS; format: cell-based
T1 construct: using mice peritoneal macrophages exposed to inflammatory stimuli (zymosan and LPS, respectively); endogenous in cells; host or cells: mouse peritoneal macrophages exposed to LPS
T1 sequence (Q05769 18-604): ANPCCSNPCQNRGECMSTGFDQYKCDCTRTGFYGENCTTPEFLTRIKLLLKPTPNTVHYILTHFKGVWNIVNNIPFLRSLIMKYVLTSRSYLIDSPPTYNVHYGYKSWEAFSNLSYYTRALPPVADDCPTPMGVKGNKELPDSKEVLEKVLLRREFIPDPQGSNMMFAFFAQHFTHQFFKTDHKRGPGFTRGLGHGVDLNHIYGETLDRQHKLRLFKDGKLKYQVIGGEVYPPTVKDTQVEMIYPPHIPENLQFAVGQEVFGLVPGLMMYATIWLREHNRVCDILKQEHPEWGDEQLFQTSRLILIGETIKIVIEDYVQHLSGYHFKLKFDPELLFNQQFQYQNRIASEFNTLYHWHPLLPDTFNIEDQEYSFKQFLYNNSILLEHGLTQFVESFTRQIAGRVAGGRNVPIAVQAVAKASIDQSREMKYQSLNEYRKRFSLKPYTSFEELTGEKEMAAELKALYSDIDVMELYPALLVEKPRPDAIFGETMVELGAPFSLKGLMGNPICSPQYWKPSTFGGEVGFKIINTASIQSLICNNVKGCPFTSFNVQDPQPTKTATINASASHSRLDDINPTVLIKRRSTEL
Procedure: (§1) The inhibitory activities of the compounds in relation to COX 1 and COX 2 were evaluated using mice peritoneal macrophages exposed to inflammatory stimuli (zymosan and LPS, respectively) in accordance with the method described by Tordjman el al., Biochimica et Biophysica Acta, 1995, 1256, 249-56.

cyclooxygenase 1 (COX 1) = molecular target: T2, cyclooxygenase 1 (COX 1) (Mus musculus, UniProt P22437); assay: Inhibitory activity in relation to COX 1 in peritoneal macrophages exposed to zymosan; format: cell-based; conditions: mice peritoneal macrophages
T2 construct: using mice peritoneal macrophages exposed to inflammatory stimuli (zymosan and LPS, respectively); endogenous in cells; host or cells: mouse peritoneal macrophages exposed to zymosan
T2 sequence (P22437 27-602): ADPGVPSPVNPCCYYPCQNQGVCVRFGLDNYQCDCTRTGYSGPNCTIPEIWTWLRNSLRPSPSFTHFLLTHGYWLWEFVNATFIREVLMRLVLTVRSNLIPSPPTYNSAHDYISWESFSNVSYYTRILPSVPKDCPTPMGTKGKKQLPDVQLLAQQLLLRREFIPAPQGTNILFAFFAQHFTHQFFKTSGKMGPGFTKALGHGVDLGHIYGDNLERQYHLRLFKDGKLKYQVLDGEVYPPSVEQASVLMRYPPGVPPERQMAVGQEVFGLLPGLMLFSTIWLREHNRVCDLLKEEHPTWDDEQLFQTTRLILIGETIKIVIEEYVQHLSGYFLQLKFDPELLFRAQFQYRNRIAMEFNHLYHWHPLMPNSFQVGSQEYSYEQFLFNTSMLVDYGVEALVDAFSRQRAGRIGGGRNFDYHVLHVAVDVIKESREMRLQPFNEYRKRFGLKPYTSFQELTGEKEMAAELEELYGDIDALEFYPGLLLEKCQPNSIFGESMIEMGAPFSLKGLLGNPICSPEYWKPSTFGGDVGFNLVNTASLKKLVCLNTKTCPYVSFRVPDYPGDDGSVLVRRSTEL
Procedure: as §1

[1] = tested on: IL1β production by THP1 line cells; assay: Inhibition of production of IL1β by THP1 line cells stimulated with LPS; format: cell-based; conditions: Homo sapiens, THP-1
[2] = tested on: production of prostaglandins; assay: Inhibition of prostaglandin production in the carrageenin air-pouch model; format: in vivo; conditions: oral, mouse
Text: In addition, those compounds exert an activity in animals especially by inhibiting the production of prostaglandins in the carrageenin air-pouch model in the mouse (Whittle, B. J. R. et al., Nature, 1980, 284, 271-273; Masferrer, J. L. el al., Proc. Natl. Acad. Sci. USA, 1994, 91, 3228-3232).

[3] = tested on: NO production in mouse peritoneal macrophages; assay: Inhibition of NO production in peritoneal macrophages stimulated with LPS; format: cell-based; conditions: Peritoneal macrophage

`Fc1ccc(-c2[nH]c(-c3ccc(F)cc3)c3c2CCCC3)cc1` [Example 1, 1,3-di-(4-fluorophenyl)-4,5,6,7-tetrahydro-2H-isoindole] showed a pIC50 (cyclooxygenase 2 (COX 2); mice peritoneal macrophages, read-out: IC50 cox 2) of 9.00 and a pIC50 (cyclooxygenase 1 (COX 1)) of 6.30 to 7.00.
Compound `c1ccc(-c2[nH]c(-c3ccccc3)c3c2CCCC3)cc1` [Example 2, 1,3-diphenyl-4,5,6,7-tetrahydro-2H-isoindole] has a pIC50 (cyclooxygenase 2 (COX 2); read-out: IC50 cox 2, mice peritoneal macrophages) of 9.00 and a pIC50 (cyclooxygenase 1 (COX 1)) of 6.30 to 7.00.
`c1ccc(-c2[nH]c(-c3ccccc3)c3c2CCC3)cc1` [Example 4, 1,3-diphenyl-2,4,5,6-tetrahydrocyclopenta[c]pyrrole] gave a pIC50 (cyclooxygenase 1 (COX 1)) of 6.30 to 7.00.
For `C1=CCc2c(-c3ccccc3)[nH]c(-c3ccccc3)c2C1` [Example 5, 1,3-diphenyl-4,7-dihydro-2H-isoindole], the pIC50 (cyclooxygenase 1 (COX 1)) was 7.00.
In the case of `CC1Cc2c(-c3ccccc3)[nH]c(-c3ccccc3)c2CC1C` (stereo not shown) [Example 9, 1,3-diphenyl-5,6-dimethyl-4,5,6,7-tetrahydro-2H-isoindole], the pIC50 [1] was about 6.00.
`Fc1ccc(-c2[nH]c(-c3ccc(F)cc3)c3c2C2CCC3C2)cc1` [Example 19, 1,3-di-(4-fluorophenyl)-4,7-methano-4,5,6,7-tetrahydro-2H-isoindole] showed an ED50 [2] of 2.5 mg/kg, a pIC50 [3] of 5.60 and a pIC50 (cyclooxygenase 1 (COX 1)) of 7.00.
